Key:
Plasmodium falciparum [1] = assay: NOVARTIS: Inhibition of Plasmodium falciparum 3D7 (drug-susceptible) proliferation in erythrocyte-based infection assay; format: functional, organism-based; conditions: Plasmodium falciparum, 3D7
[2] = NOVARTIS: Cytotoxicity against human hepatocellular carcinoma cell line (Huh7); format: toxicity, cell-based, Huh-7; conditions: Huh7 cells (hepatocellular carcinoma cell line)
Plasmodium falciparum [3] = assay: NOVARTIS: Inhibition of Plasmodium falciparum W2 (drug-resistant) proliferation in erythrocyte-based infection assay; format: functional, organism-based; conditions: Plasmodium falciparum, W2; read-out: EC50

SMILES	EC50 (Plasmodium falciparum [1])	CC50 [2]	EC50 (Plasmodium falciparum [3])
COc1ccc(C(OCC(=O)N2CCN(Cc3ccccc3)CC2)c2ccccc2)cn1 (configuration not stated)	604 nM	> 10000 nM	434 nM
O=C(O)CCNc1ccccc1[N+](=O)[O-]	> 8540 nM	> 100000 nM	> 4310 nM
CCNC(=O)/C=C/c1ccc(C(C)(C)C)cc1	> 1100 nM	> 10000 nM	441 nM
CN(C)c1ccc(-c2nc(-c3ccc(-c4[nH]c(-c5ccc(N(C)C)cc5)nc4-c4ccccc4)cc3)c(-c3ccccc3)[nH]2)cc1	7820 nM	68400 nM	2910 nM
Oc1cccc(C=Nc2ccccc2)c1O	360 nM	> 10300 nM	435 nM
CCc1ccc(C(=O)N(CC(=O)Nc2cc(C(C)(C)C)nn2-c2ccc(Cl)c(Cl)c2)C(C)C)cc1	1730 nM	87800 nM	3860 nM
CCOC(=O)c1cnc2ccc(Cl)cc2c1Nc1ccc(OC)c(OC)c1	2670 nM	> 100000 nM	4430 nM
O=C1C(=O)N(Cc2cccc3ccccc23)c2ccc(Br)cc21	> 12500 nM	> 100000 nM	4230 nM
O=C(NCc1ccccc1)NC1CC2CCCC(C1)N2Cc1ccccc1 (configuration not stated)	879 nM	> 10000 nM	423 nM
COc1ccccc1N1C(=N)S/C(=C\c2ccc(OCc3ccccc3F)cc2)C1=O	741 nM	> 10000 nM	434 nM
CCN1/C(=C/C(=C/c2sc3ccccc3[n+]2CC)NC)Sc2ccccc21	> 1250 nM	> 10000 nM	> 422 nM
FC(F)(F)c1cccc(Nc2nnnc3ccccc23)c1	756 nM	> 10000 nM	433 nM
CC(=O)OCN1C(=O)N(COC(C)=O)C2C1N(COC(C)=O)C(=O)N2COC(C)=O (configuration not stated)	> 11600 nM	> 100000 nM	4220 nM
CC1(C)C=C(C23C=CC(C2)C2C(=C4CC(C)(C)NC(C)(C)C4)C=CC23)CC(C)(C)N1 (configuration not stated)	2230 nM	44700 nM	1970 nM
CC1(C)CN=C(NCc2ccccc2Cl)S1	7450 nM	34200 nM	1480 nM
CC(=O)N/C(=C\c1ccc(OC(F)F)cc1)C(=O)O	> 1170 nM	> 10000 nM	432 nM
O=C(/C=C\c1ccccc1)Nc1ccc2[nH]c(-c3ccc(NC(=O)/C=C/c4ccccc4)cc3)nc2c1	254 nM	> 10000 nM	425 nM
COCCNC(=O)[C@@H]1C[C@@H](NCCC2=C(C)CCCC2(C)C)CN1C(C)C	> 12500 nM	> 100000 nM	4300 nM
CN(CCCNc1ccnc2cc(Cl)ccc12)S(=O)(=O)c1ccc(Br)cc1	186 nM	6880 nM	295 nM
CC(C)(C)c1ccc(C(=O)Nc2ccc(NC(=O)c3ccc(-c4cccc([N+](=O)[O-])c4)o3)cc2)cc1	> 1460 nM	> 10000 nM	> 429 nM
COc1ccc(CCNC(=O)CC(=O)NN=Cc2ccc(Br)cc2)cc1OC	> 1250 nM	> 10000 nM	> 429 nM
CN(Cc1ccccc1)CC(O)COc1ccc(CNCCCN2CCCC2)cc1 (configuration not stated)	2380 nM	59800 nM	2560 nM
CCOC(=O)c1cccc(NC(=O)CCn2nc(C)c3c(C)n(-c4ccccc4)nc3c2=O)c1	3060 nM	> 100000 nM	4270 nM
O=Cc1c(OCc2ccc(Cl)cc2Cl)ccc2ccccc12	719 nM	> 10000 nM	426 nM
Clc1ccc(-c2c[n+](Cc3ccccc3Cl)c3n2CCC3)cc1Cl	749 nM	> 30900 nM	1310 nM
CCC(C)NC(=O)c1c[nH]c2ccc(S(=O)(=O)N3CCc4ccccc43)cc2c1=O (configuration not stated)	> 1250 nM	> 10000 nM	424 nM
Cn1cnc2cc(OC3CCN(Cc4ccco4)CC3)ccc21	216 nM	> 4340 nM	192 nM

SMILES	EC50 (Plasmodium falciparum [1])	CC50 [2]	EC50 (Plasmodium falciparum [3])
CCCCN(CC)S(=O)(=O)c1cc(Br)cc2c1N(C(C)=O)CC2	1560 nM	> 10000 nM	441 nM
COc1nccnc1NS(=O)(=O)c1ccc(NC(=O)c2cc3ccccc3oc2=O)cc1	> 1250 nM	> 10000 nM	> 428 nM
CC(C)N1CCC(N2CCN(Cc3ccc4c(c3)Cc3ccccc3-4)CC2CCO)CC1 (configuration not stated)	1540 nM	20500 nM	905 nM
O=[N+]([O-])c1ccc2nc(Nc3ccccc3)c(Nc3ccccc3)nc2c1	941 nM	21700 nM	955 nM
CC(C)CNc1nc(NCCCn2ccnc2)ncc1C(=O)NCc1ccccc1	257 nM	> 10000 nM	443 nM
CCOC(=O)C1=C(C)N(c2ccc(OCC)cc2)C(=O)/C1=C\c1ccc(C(C)C)cc1	> 1280 nM	> 10000 nM	439 nM
CN(C)c1ccc(C2Nc3ccccc3NC3=C2C(=O)CC(C)(C)C3)cc1 (configuration not stated)	> 12500 nM	> 100000 nM	4390 nM
O=C(Cn1ccc(=NCc2ccccc2)cc1)c1cccc([N+](=O)[O-])c1	397 nM	> 10000 nM	439 nM
CCCCc1nc(CN2CCC3(CC2)C(=O)N(CCc2ccccc2)C(=O)N3C)c[nH]1	> 12000 nM	> 100000 nM	4380 nM
CCCN1CCN(CCCNC(=O)c2ccc3c(c2)sc2nc(-c4ccc(OC)cc4)cn23)CC1	2440 nM	> 100000 nM	4380 nM
CN(C)c1ccc(-c2cc(-c3ccccc3)[s+]c(-c3ccccc3)c2)cc1	318 nM	1690 nM	73.7 nM
Cc1ccc(O)c(Nc2c3c(c(C#N)c4nc5ccccc5n24)CCC3)c1	231 nM	> 10000 nM	424 nM
CCOc1cccc2c1N(C(=O)c1cccc([N+](=O)[O-])c1)C(C)(C)C(=S)C2=C1SC(C(=O)OC)=C(C(=O)OC)S1	> 1250 nM	> 10000 nM	444 nM
CC(c1nc2ccccc2c(=O)n1-c1ccc(Br)cc1)N1CCN(S(=O)(=O)c2ccc3ccccc3c2)C(C)C1 (configuration not stated)	> 1250 nM	> 10000 nM	434 nM
OCCNc1nc(Nc2ccc(Cl)cc2)nc2ccccc12	321 nM	11600 nM	508 nM
CN(C)CCNc1ncnc2c1[nH]c1ccc(Cl)cc12	632 nM	20400 nM	886 nM
CC(C)CC(=O)NCCCCNc1ccnc2cc(Cl)ccc12	620 nM	> 10000 nM	430 nM
CCN(CC)CCCC(C)Nc1ccnc2cc3ccccc3cc12 (configuration not stated)	90.1 nM	21300 nM	933 nM
COc1ccc(-c2cc(=O)c3c(O)cc(OC4OC(COC5OC(C)C(O)C(O)C5O)C(O)C(O)C4O)cc3o2)cc1 (configuration not stated)	> 12500 nM	> 100000 nM	4420 nM
O=[N+]([O-])c1cccc(C=NNc2nc(NN=Cc3cccc([N+](=O)[O-])c3)nc(Nc3cccc4ccccc34)n2)c1	509 nM	> 10000 nM	442 nM
O=[N+]([O-])c1ccc(-c2csc(CO)n2)cc1	> 12500 nM	> 100000 nM	4270 nM
CC(CC(=O)Oc1ccccc1-c1nc2ccccn2c1NC(C)(C)CC(C)(C)C)CC(C)(C)C (configuration not stated)	242 nM	796 nM	34.2 nM
CCOc1c(Cl)cc(CNC(C)C(O)c2ccccc2)cc1OC (configuration not stated)	1650 nM	> 10000 nM	427 nM
CN(CCCNc1ccnc2cc(Cl)ccc12)C(=O)c1cccc(F)c1	739 nM	> 11500 nM	490 nM
CCCCN1Cc2ccc(C(=O)NCCN3CCOCC3)cc2N=C1c1ccc(OC)cc1	> 10000 nM	> 100000 nM	4410 nM
Cc1nc2c(C#N)c(C)nn2c(C)c1Cc1cccc(F)c1	437 nM	> 10000 nM	444 nM
CCOC(=O)c1sc(NC(=O)C(C)Sc2nnc(CNC(=O)c3ccc(OC)cc3)n2-c2ccccc2OC)c(C(=O)OCC)c1C (configuration not stated)	> 1250 nM	> 10000 nM	439 nM
